Consider eleven molecules from publication PMC9400670, “Establishing the selective phospholipid membrane coordination, permeation and lysis properties for a series of ‘druggable’ supramolecular self-associating antimicrobial amphiphiles” (Chemical Science, 2022).

Data set [1] in a line: Mouse plasma protein binding (rapid equilibrium dialysis) with plasma stability. The data set is classed as in vitro ADME. The following applies: for recovery at 4 h, 2 µM: mouse plasma, read-out: Recovery (PPB assay); for fraction unbound at 4 h, 2 µM: PPB. The procedure: page 7: Section 4: DMPK Methods and Further Discussion Materials used for DMPK studies: Sprague Dawley rat liver microsomes (male, 771 donors, Lot 1910100), CD-1 mouse liver microsomes (male, 6424 donors, Lot 2010017) and human liver microsomes (mixed gender,50 donors, Lot 1810003) were purchased from Sekisui Xenotech (Kansas City, USA). Microsomal incubations: SSA 1-6 and 10 (final concentration 1 µM) were pre-incubated for 10 min in mouse, rat, or human liver microsomes (final concentration 0.5 mg/mL prepared in 100 mM potassium phosphate buffered saline (PBS)) at 37°C. The reaction was initiated with the addition of the cofactor, NADPH-generating system. The NADPH-generating system consisted of NADP (1.3 mM, pH 7.4), glucose-6-phosphate (3.3 mM, pH 7.4), glucose-6-phosphate dehydrogenase (0.4 unit/mL) and MgCl2 (3.3 mM). The reaction was allowed to proceed for 45 min. At 0, 5, 10, 15, 30, and 45 min aliquots were sampled and quenched in ice cold acetonitrile with internal standard. Incubations were conducted in singlicate; control incubations (substituting PBS for NADPH) were conducted simultaneously. All control incubations were within acceptance criteria in mouse, rat, and human microsomes confirming stability was acceptable over 45 minutes in the absence of co-factor. Protein Binding studies: The fraction unbound in mouse plasma (BioIVT, Frankfurt Am Main, Germany) of SSA 1-6 and 10 were measured using a Rapid Equilibrium Dialysis device (Thermo Fisher Scientific, Loughborough, UK). Mouse plasma containing 2 µM of SSA 1-6 and 10 were dialysed against 100 mM PBS for 4h at 37°C at 5% CO2. Samples were removed, matrix matched and quenched with acetonitrile containing internal standard; further processing is described in: Sample preparation and liquid chromatography-mass spectrometry analysis. Caco-2 Permeability studies: The permeability assay for SSA 1-6 and 10 was performed at Cyprotex Discovery Limited (Macclesfield, UK) and analysed at Cancer Research Horizons. SSA 1-6 and 10 were incubated at a final concentration of 10 uM with human intestinal Caco-2 cells at 37°C, 5% CO2 with a relative humidity of 95%. After 120 minutes the apical compartment inserts and the companion plates were separated, and the apical and basolateral samples were transferred. Incubations were conducted in duplicate and the fluorescent membrane integrity marker; Lucifer Yellow was co- incubated with the SSA compounds at the start of the assay. Compounds of known permeability were used as controls and were within acceptance criteria. Further processing is described in: Sample preparation and liquid chromatography-mass spectrometry analysis. Sample preparation and liquid chromatography-mass spectrometry analysis: All samples were centrifuged at 3500 rpm at 4°C for 10 min to precipitate protein and enable sampling of supernatant prior to appropriate dilution for liquid chromatography-mass spectrometry (LC-MS/MS analysis). For the purpose of CLINT determination, samples were analysed using a Waters I-Class ultra-high- performance liquid chromatography (UHPLC) system coupled to a Waters Xevo TQ-XS mass spectrometer (Waters, Elstree, UK). Separation of analytes was achieved using an Accucore Vanquish C18+ column (1.5 µm, 50 x 2.1 mm) (Thermo Fisher Scientific, Hemel Hempstead) at a temperature of 40°C and a binary mobile phase gradient at a flow rate of 0.4 mL/min. Initial LC conditions comprised 95% solvent A (0.1% formic acid + 5 mM ammonium acetate in water), 5% solvent B (0.1% formic acid + 5 mM ammonium acetate in acetonitrile); this was ramped to 90% B at 5 min, and then immediately returned to initial conditions and held for the remaining 0.5 min of the method. Sample analysis was by electrospray ionisation combined with multiple reaction monitoring in negative ion mode. […]
Background: Equilibrium dialysis compares concentrations on both sides of a semipermeable membrane.

Data set [2] has as its system E. coli total lipid vesicles. In words: Synthetic phospholipid vesicle membrane binding assay (fluorescence polarisation), E. coli total vesicles. The following applies: lipid vesicles added to SSA (0.15 mM); n = 3; error = standard error; SSA alone set to 100 mP. The procedure:
For intrinsically fluorescent SSAs 5, 6 and 8–12, FP titration experiments enabled the observation of SSA: phospholipid vesicle interactions. Here, an increase in FP value indicates an increase in the apparent size of the SSA as it interacts with the phospholipid vesicle. […]
Fluorescence polarisation: Lipid films were resuspended in Buffer (150 mM KCl, 10 mM HEPES, pH 7.4, 2 mM EGTA) and subjected to 9 freeze-thaw cycles in liquid nitrogen and extruded 20 times through a 200 nm polycarbonate membrane. Black bottom 96-well plates were prepared by serially diluting desired vesicle solution across the plate, the appropriate SSA solution (100 µL, 0.15 mM) was added to each well to give a total well volume of 200 µL. Fluorescent SSA solutions were set to a FP value of 100 mP. Data were acquired in endpoint mode. […]

Setting [3] is: mouse, % SSA recovered from the assay after 4 hours.

Each structure is given as a SMILES string.

A word on the fraction unbound: it is the share of the substance not bound to proteins or other matrix. The low end stands for extensive binding, the high end for weak binding. Consider `O=C(NCS(=O)(=O)O)Nc1ccc(C(F)(F)F)cc1` [SSA 1], for which the Plasma stability in data set [1] (mouse, 4 h, 2 µM) stood at 94%. In addition, the recovery at 4 h, 2 µM in data set [1] (setting [3]) amounted to 91%. Moreover, in data set [1] (mouse, plasma), the PPB class result is recorded as “low” and the free fraction (fraction unbound) at 4 h, 2 µM is 0.25.
Molecule `O=C(NCCCS(=O)(=O)O)Nc1ccc(C(F)(F)F)cc1` [SSA 2] had a Plasma stability in data set [1] (mouse, 4 h, 2 µM) of 93%. In data set [1] (setting [3]), the recovery at 4 h, 2 µM is 79%. The molecule also gave a fraction unbound at 4 h, 2 µM in data set [1] (mouse, plasma) of 0.166.
Take `O=C(NCS(=O)(=O)O)Nc1ccc(C(F)(F)F)cc1` [SSA 3]: in data set [1] (% SSA recovered from the assay after 4 hours), the “Recovery (PPB assay)” value is reported as 80%. This molecule also showed a Plasma stability in data set [1] (mouse, 4 h, 2 µM) of 89%. The PPB in data set [1] (mouse, plasma, 4 h, 2 µM) is reported as 73.8%.
In data set [1] (mouse, 4 h, 2 µM), `O=C(O)CNC(=O)Nc1ccc(C(F)(F)F)cc1` [SSA 4] showed a Plasma stability of 96%. Also, the recovery at 4 h, 2 µM in data set [1] (setting [3]) was 86%. In data set [1] (mouse, plasma), the PPB class entry is on record as “low” and the unbound share (fraction unbound) at 4 h, 2 µM is 0.328.
In the case of `O=C(NCS(=O)(=O)O)Nc1ccccc1-c1nc2ccccc2s1` [SSA 5], the “increase in FP, E. coli total” value in data set [2] was 32 ± 3 mP. In data set [1] (mouse, 4 h, 2 µM), this molecule registered a Plasma stability of 92%. Further, the recovery at 4 h, 2 µM in data set [1] (setting [3]) worked out at 109%. In addition, in data set [1] (mouse, plasma), the PPB class result is recorded as “very high” and the fraction unbound at 4 h, 2 µM was less than 0.003.
For the molecule `Cc1ccc2nc(-c3ccc(NC(=O)NCS(=O)(=O)O)cc3)sc2c1` [SSA 6], the “increase in FP, E. coli total” value in data set [2] came to 20 ± 1 mP. The molecule further had a Plasma stability in data set [1] (mouse, 4 h, 2 µM) of 90%. Further, the recovery at 4 h, 2 µM in data set [1] (setting [3]) was 101%. For the same molecule, in data set [1] (mouse, plasma), the PPB class result is “very high” and the unbound share (fraction unbound) at 4 h, 2 µM is 0.007.
For the molecule `O=C(NCS(=O)(=O)O)Nc1ccc(-c2nc3ccccc3s2)cc1` [SSA 8], the “increase in FP, E. coli total” value in data set [2] is reported as 24 ± 3 mP.
As to `Cc1ccc2nc(-c3ccc(NC(=O)NCCC(=O)O)cc3)sc2c1` [SSA 9], the “increase in FP, E. coli total” value in data set [2] is on record as 130 ± 5 mP.
Take `Cc1ccc2nc(-c3ccc(NC(=O)NCCCS(=O)(=O)O)cc3)sc2c1` [SSA 10]: the “increase in FP, E. coli total” value in data set [2] is 15 ± 2 mP. The molecule also returned a Plasma stability in data set [1] (mouse, 4 h, 2 µM) of 89%. For the same molecule, the recovery at 4 h, 2 µM in data set [1] (setting [3]) is 94%. Besides, in data set [1] (mouse, plasma), the PPB class entry was “very high” and the fraction unbound at 4 h, 2 µM was 0.007.
`Cc1ccc2nc(-c3ccc(NC(=O)NCC(=O)O)cc3)sc2c1` [SSA 11]: the “increase in FP, E. coli total” value in data set [2] turned out to be 66 ± 4 mP.
Still for that read-out and setting: as for `Cc1ccc2nc(-c3ccc(NC(=S)NCS(=O)(=O)O)cc3)sc2c1` [SSA 12], the figure is 199 ± 5 mP.
